From patent US8178678B2, “Bis-quaternary ammonium salts and methods for modulating neuronal nicotinic acetylcholine receptors” (University of Kentucky Research Foundation, priority 2006, dated 2012) come the findings set out here.

The test system of experiment [1] is nicotinic receptors mediating S-nicotine-evoked [^3H]DA release in rat striatal slices. Put plainly: Inhibition of S-nicotine-evoked [^3H]dopamine release from superfused rat striatal slices. In kind it is cell-based. To be noted: 1 h; 100 nM analog superfused 60 min before NIC 10 μM; rat striatal slices; read-out: [^3H]DA release, % inhibition of S-nicotine-evoked release. The method, then:
Rat striatal slices (500 μm thickness, 6-8 mg wet weight) were incubated for 30 minutes in Krebs buffer (118 mM NaCl, 4.7 mM KCl, 1.2 mM MgCl2, 1.0 mM NaH2PO4, 1.3 mM CaCl2, 11.1 mM glucose, 25 mM NaHCO3, 0.11 mM L-ascorbic acid, and 0.004 mM disodium EDTA; pH 7.4, and saturated with 95% O2/5% CO2) in a metabolic shaker at 34° C. Slices were rinsed with 15 mL of fresh buffer and incubated for an additional 30 minutes in fresh buffer containing 0.1 μM [^3H]dopamine (DA; 6 slices/3 mL). Subsequently, slices were rinsed with 15 mL of fresh buffer and transferred to a glass superfusion chamber. Slices were superfused (1.0 mL/min) for 60 minutes with Krebs buffer containing nomifensine (10 μM) and pargyline (10 μM) and maintained at 34° C., pH 7.4, with continual aeration (95% O2/5% CO2). Two five minute samples (5 mL each) were collected to determine basal outflow of [^3H]DA. The bis-quaternary ammonium analogs were added to the superfusion buffer after the collection of the second sample and remained in the buffer until 12 consecutive five minute samples were collected. Subsequently, S-nicotine (NIC; 10 μM) was added to the buffer and an additional 12 consecutive five minute samples were collected. At the end of the experiment, each slice was solubilized and the [^3H] content of the tissue determined.
Radioactivity in the superfusate and tissue samples was determined by liquid scintillation spectroscopy. Fractional release for tritium collected in each sample was divided by the total tritium present in the tissue at the time of sample collection and was expressed as a percentage of total tritium. Basal [^3H]outflow was calculated from the average of the tritium collected in the two five minute samples just before addition of the quaternary analog. The sum of the increase in collected tritium resulting from either exposure to the test compound or exposure to S-nicotine in the absence and presence of the test compound equaled total [^3H]overflow. [^3H]Overflow was calculated by subtracting the [^3H]outflow during an equivalent period of prestimulation from the values in samples collected during and after drug exposure. Inasmuch as the radiolabelled compounds were not separated and identified, the tritium collected in superfusate is referred to as either [3H]outflow or [^3H]overflow, rather than as [^3H]DA. [^3H]Overflow primarily represents [^3H]DA in the presence of nomifensine and pargyline in the superfusion buffer.
The bis-quaternary ammonium analogs were also evaluated for their ability to inhibit NIC evoked [^3H]DA release. In these experiments, the striatal slices were superfused for 60 minutes with 100 nM concentration of the quaternary analogs prior to NIC (10 μM) exposure. Antagonist activity was evaluated by comparing the NIC-evoked [^3 H]overflow in the absence and presence of the analogs. The relative order of potency of the quaternary analogs for inhibition of NIC-evoked [^3H]DA release from rat striatal slices is illustrated in Table 1.
^aData are % inhibition at 100 nM concentration of the bis-quaternary ammonium analogs for at least 1-3 independent experiments; with the exception of when a Ki value in μM is provided, in which case a full concentration effect was evaluated. Specific binding in the [^3H]NIC binding assay is calculated as the difference between the total binding of 3 nM [^3H]NIC and nonspecific binding in the presence of 10 μM cold cytisine. Specific binding for the [^3H]MLA binding assay is calculated as the difference between the total binding of […] [^3H]MLA to the receptors alone and its nonspecific binding in the presence of […] cold S-nicotine. Analog-induced inhibition of S-nicotine-evoked [^3H]DA release is calculated as a percent of that in the absence of the bis-quaternary ammonium analog.

The target of experiment [2] is T1, Rat Striatal Nicotinic Receptors ([^3H]NIC binding sites; α4β2) (Rattus norvegicus, UniProt P09483+P12390).
T1 construct: Whole brain, excluding cortex and cerebellum, was homogenized in 20 vol of ice-cold buffer; from tissue; host or cells: rat brain membranes (whole brain excluding cortex and cerebellum)
T1 sequence (P09483 31-630): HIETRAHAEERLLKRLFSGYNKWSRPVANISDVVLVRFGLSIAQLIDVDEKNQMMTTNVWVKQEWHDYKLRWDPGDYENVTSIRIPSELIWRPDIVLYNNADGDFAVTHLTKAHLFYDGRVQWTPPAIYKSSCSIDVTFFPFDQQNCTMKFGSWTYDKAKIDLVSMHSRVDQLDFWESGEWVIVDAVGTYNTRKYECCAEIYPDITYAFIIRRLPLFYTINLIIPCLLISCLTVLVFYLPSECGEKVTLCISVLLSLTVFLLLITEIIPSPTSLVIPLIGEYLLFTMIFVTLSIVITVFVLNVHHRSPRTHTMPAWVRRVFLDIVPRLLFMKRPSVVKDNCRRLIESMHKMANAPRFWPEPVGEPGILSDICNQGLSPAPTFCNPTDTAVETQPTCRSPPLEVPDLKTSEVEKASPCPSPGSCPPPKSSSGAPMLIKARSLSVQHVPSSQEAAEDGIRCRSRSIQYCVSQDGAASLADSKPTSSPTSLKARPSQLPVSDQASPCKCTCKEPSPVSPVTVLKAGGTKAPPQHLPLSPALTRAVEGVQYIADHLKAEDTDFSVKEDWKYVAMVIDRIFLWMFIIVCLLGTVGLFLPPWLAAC
T1 sequence (P12390 25-500): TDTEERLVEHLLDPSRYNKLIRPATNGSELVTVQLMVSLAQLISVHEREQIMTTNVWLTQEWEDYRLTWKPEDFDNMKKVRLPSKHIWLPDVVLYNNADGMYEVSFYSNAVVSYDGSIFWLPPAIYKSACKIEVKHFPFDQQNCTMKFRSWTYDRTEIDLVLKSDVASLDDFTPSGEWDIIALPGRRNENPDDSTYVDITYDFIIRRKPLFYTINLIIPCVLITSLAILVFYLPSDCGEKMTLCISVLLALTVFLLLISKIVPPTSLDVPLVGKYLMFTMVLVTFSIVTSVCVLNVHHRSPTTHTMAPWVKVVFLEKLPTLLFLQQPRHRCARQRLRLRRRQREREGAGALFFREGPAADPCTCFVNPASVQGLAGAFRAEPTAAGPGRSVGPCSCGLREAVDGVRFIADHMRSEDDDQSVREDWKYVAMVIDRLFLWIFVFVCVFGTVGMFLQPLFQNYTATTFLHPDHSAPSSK
Description: Inhibition of [^3H]NIC binding. To be noted: 1 h; 100 nM analog; 3 nM [^3H]NIC; nonspecific 10 μM cytisine; rat brain membranes. As for the experimental part:
(§1) Homogenate was centrifuged (25,000 g, 15 min, 4° C). Pellets were resuspended in 20 vol buffer and incubated at 37° C., for 10 min, cooled to 4° C. and centrifuged (25,000 g, 15 min, 4° C.). Pellets were resuspended and centrifuged using the same conditions. […] Upon use, final pellets were resuspended in 20 vol assay buffer. Samples (250 μl) contained 100-140 μg of membrane protein, 3 nM [^3H]-S-nicotine or 3 nM [^3H]-methyllycaconitine (MLA), and bis-quaternary ammonium analog (100 nM) in assay buffer containing 50 mM Tris. Control was in the absence of analog. In [^3H]-S-nicotine and [^3H]-methyllycaconitine binding assays, nonspecific binding was determined in the presence of 10 μM cytisine and 10 μM S-nicotine, respectively. Incubations proceeded for 60 min at room temperature using 96-well plates and were terminated by harvesting on Unifilter-96 GF/B filter plates presoaked in 0.5% polyethylenimine, using a Packard FilterMate harvester. After washing 5 times with 350 μl ice-cold assay buffer, filter plates were dried (60 min, 4° C.), bottom-sealed, and filled with Packard's MicroScint 20 cocktail (40 μl/well). After 60 min, filter plates were top-sealed, and radioactivity determined using a Packard TopCount. Protein concentrations were determined using the Bradford dye-binding procedure bovine serum albumin as the standard.
Specific binding in the [^3H]NIC binding assay is calculated as the difference between the total binding of 3 nM [^3H]NIC and nonspecific binding in the presence of 10 μM cold cytisine. […] Analog-induced inhibition of S-nicotine-evoked [^3H]DA release is calculated as a percent of that in the absence of the bis-quaternary ammonium analog.

Experiment [3] addresses T2, Rat Striatal Nicotinic Receptors ([^3H]MLA binding sites; α7) (Rattus norvegicus, UniProt Q05941).
T2 construct: Whole brain, excluding cortex and cerebellum, was homogenized in 20 vol of ice-cold buffer; from tissue; host or cells: rat brain membranes (whole brain excluding cortex and cerebellum)
Description: Inhibition of [^3H]MLA (methyllycaconitine) binding. The settings on record: 100 nM analog; [^3H]MLA; nonspecific S-nicotine; rat brain membranes; read-out: [^3H]MLA binding, % inhibition. As for the experimental part:
as §1, with “standard. […]” for “standard.”

T2 sequence (Q05941 23-502): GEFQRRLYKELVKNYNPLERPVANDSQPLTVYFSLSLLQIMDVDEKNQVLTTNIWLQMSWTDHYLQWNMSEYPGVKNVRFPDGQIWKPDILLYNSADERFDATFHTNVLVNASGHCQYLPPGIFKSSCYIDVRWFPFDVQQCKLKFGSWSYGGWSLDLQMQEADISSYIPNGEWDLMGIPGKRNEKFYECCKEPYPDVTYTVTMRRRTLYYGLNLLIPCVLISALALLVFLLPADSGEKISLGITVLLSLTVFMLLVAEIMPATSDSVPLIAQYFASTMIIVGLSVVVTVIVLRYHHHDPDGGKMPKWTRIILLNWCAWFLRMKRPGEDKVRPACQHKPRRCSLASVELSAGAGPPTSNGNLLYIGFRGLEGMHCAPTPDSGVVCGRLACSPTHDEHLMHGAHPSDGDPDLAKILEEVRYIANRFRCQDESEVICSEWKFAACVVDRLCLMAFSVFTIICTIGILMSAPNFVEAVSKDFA

In general, inhibition refers to the share of the control response that was lost under treatment. Turning to `Cc1cc[n+](CCCCCc2ccccc2CCCCC[n+]2ccc(C)cc2)cc1` [Example 36, 1,2-bis-[5-(4-methyl-pyridinium)-pentyl]-benzene dibromide], the inhibition at 0.1 µM in experiment [1] turned out to be 11%; in experiment [2], 0%; in experiment [3], 3.1%.

For the compound `Cc1cc[n+](CCCCCc2ccccc2CCCCC[n+]2ccc(C)cc2C)c(C)c1` [Example 37, 1,2-bis-[5-(2,4-dimethyl-pyridinium)-pentyl]-benzene dibromide], the inhibition at 0.1 µM in experiment [1] worked out at 20%; in experiment [2], 0%; in experiment [3], 4.8%.

With `Cc1cc[n+](CCCCCc2ccccc2CCCCC[n+]2ccc(C)c(C)c2)cc1C` [Example 38, 1,2-bis-[5-(3,4-dimethyl-pyridinium)-pentyl]-benzene dibromide], the inhibition at 0.1 µM in experiment [1] stood at 10%; in experiment [2], 3%; in experiment [3] it was 4.6%.

For `Cc1cc(C)c[n+](CCCCCc2ccccc2CCCCC[n+]2cc(C)cc(C)c2)c1` [Example 39, 1,2-bis-[5-(3,5-dimethyl-pyridinium)-pentyl]-benzene dibromide], the results for the inhibition at 0.1 µM in experiment [1], in experiment [2] and in experiment [3] were 47%, 0.7% and 0%, respectively.

With `c1ccc(CCCCC[n+]2cccc3ccccc32)c(CCCCC[n+]2cccc3ccccc32)c1` [Example 40, 1,2-bis-(5-quinolinium-pentyl)-benzene dibromide], the inhibition at 0.1 µM in experiment [1] amounted to 24%; in experiment [2] it was 0%; in experiment [3], 6.3%.

With `c1ccc(CCCCC[n+]2ccc3ccccc3c2)c(CCCCC[n+]2ccc3ccccc3c2)c1` [Example 41, 1,2-bis-(5-isoquinolinium-pentyl)-benzene dibromide], the inhibition at 0.1 µM in experiment [1] stood at 54%; in experiment [2], 1.9%; in experiment [3], 0%.

For `CN1CCCC1c1ccc[n+](CCCCCc2ccccc2CCCCC[n+]2cccc([C@@H]3CCCN3C)c2)c1` (stereo partly drawn) [Example 42, 1,2-bis-[5-(2′-S-nicotinium-pentyl)]benzene dibromide], the inhibition at 0.1 µM in experiment [1] came out at 59%; in experiment [2], 71%; in experiment [3] it was 11%.

On to `Brc1ccc[n+](CCCCCc2ccccc2CCCCC[n+]2cccc(Br)c2)c1` [Example 44, 1,2-bis-[5-(3-bromo-pyridinium)-pentyl]-benzene dibromide], for which the inhibition at 0.1 µM came to 7% in experiment [1], 2.9% in experiment [2] and 0.9% in experiment [3].

`c1cc[n+](CCCCCc2ccccc2CCCCC[n+]2ccccc2)cc1` [Example 45, 1,2-bis-(5-pyridinium-pentyl)-benzene dibromide]: the inhibition at 0.1 µM worked out at 37% in experiment [1], 3.3% in experiment [2] and 1.9% in experiment [3].

Consider `Cc1cccc[n+]1CCCC#Cc1cccc(C#CCCC[n+]2ccccc2C)c1` [Example 48, 1,3-bis-[5-(2-methyl-pyridinium)-pent-1-ynyl]-benzene dibromide], for which the values for the inhibition at 0.1 µM in experiment [1], in experiment [2] and in experiment [3] were 35%, 1.9% and 0%, respectively.

For `Cc1ccc[n+](CCCC#Cc2cccc(C#CCCC[n+]3cccc(C)c3)c2)c1` [Example 49, 1,3-bis-[5-(3-methyl-pyridinium)-pent-1-ynyl]-benzene dibromide], the inhibition at 0.1 µM in experiment [1] was 6%; in experiment [2] it was 0.5%; in experiment [3] it was 8%.

For the compound `Cc1cc[n+](CCCC#Cc2cccc(C#CCCC[n+]3ccc(C)cc3)c2)cc1` [Example 50, 1,3-bis-[5-(4-methyl-pyridinium)-pent-1-ynyl]-benzene dibromide], the inhibition at 0.1 µM in experiment [1] was found to be 26%; in experiment [2], 10%; in experiment [3], 6.4%.

In the case of `Cc1cc[n+](CCCC#Cc2cccc(C#CCCC[n+]3ccc(C)cc3C)c2)c(C)c1` [Example 51, 1,3-bis-[5-(2,4-dimethyl-pyridinium)-pent-1-ynyl]-benzene dibromide], the figures for the inhibition at 0.1 µM in experiment [1], in experiment [2] and in experiment [3] were 0%, 7% and 5.5%, respectively.

Regarding `Cc1cc[n+](CCCC#Cc2cccc(C#CCCC[n+]3ccc(C)c(C)c3)c2)cc1C` [Example 52, 1,3-bis-[5-(3,4-dimethyl-pyridinium)-pent-1-ynyl]-benzene dibromide], the values for the inhibition at 0.1 µM in experiment [1], in experiment [2] and in experiment [3] were 11%, 11% and 3.3%, respectively.

Take `Cc1cc(C)c[n+](CCCC#Cc2cccc(C#CCCC[n+]3cc(C)cc(C)c3)c2)c1` [Example 53, 1,3-bis-[5-(3,5-dimethyl-pyridinium)-pent-1-ynyl]-benzene dibromide]: the inhibition at 0.1 µM is 4% in experiment [1], 0% in experiment [2] and 1.3% in experiment [3].

In the case of `C(#Cc1cccc(C#CCCC[n+]2cccc3ccccc32)c1)CCC[n+]1cccc2ccccc21` [Example 54, 1,3-bis-(5-quinolinium-pent-1-ynyl)-benzene dibromide], the results for the inhibition at 0.1 µM in experiment [1], in experiment [2] and in experiment [3] were 17%, 16% and 3.9%, respectively.
